Reference: publication PMC12693764, “Antidepressant-like Effects of Garcinia nigrolineata Resin Extract in a Chronic Mild Stress Mouse Model: Modulation of Monoaminergic and HPA-Axis Pathways” (Plants, 2025)
Counter-ions that a name gives are not always drawn.

Key:
MAO-A = details: cited from earlier work; for selective MAO-A inhibition: GNR-E constituents, ref Previous studies
MAO-B = details: cited from earlier work; for MAO-B inhibition (targeting): GNR-E constituents, ref Previous studies
[1] = test system: SERT, 5-HT1A, 5-HT1B, 5-HT2A, 5-HT2C, and 5-HT7; assay: qPCR of serotonergic biomarker genes in frontal cortex and hippocampus of CMS mice; format: in vivo, male ICR mice
Description: The CMS procedure, adapted from Willner [4], was applied to experimental mice over 48 days. Seventy-two mice were randomly assigned to six groups: a non-stress control group and four CMS-exposed groups for 6 weeks.
The frontal cortex (FC) and hippocampus (HP) were dissected from the brain for serotonin (5-HT), norepinephrine (NE) level assessments, and RT-qPCR analyses.
Total RNA was extracted from frontal cortex (FC) and hippocampus (HP) using TRLzol® reagent (Thermo Fisher Scientific Inc., San Jose, CA, USA), with purity and quantity assessed via UV spectrophotometry. Complementary DNA (cDNA) was synthesized using 10 mM dNTP, 50 µM oligo (dT)12-13 primer, and SuperScript® III reverse transcriptase (200 U/µL) in a FlexCycler2 PCR Thermal Cycler (Analytik Jena, Thuringia, Germany). Single-stranded DNA was annealed to gene-specific primers (Pacific Science, Bangkok, Thailand) at optimized temperatures, followed by extension. Double-stranded DNA was quantified using SYBR Green master mix (Thermo Fisher Scientific Inc., San Jose, CA, USA) in a 20 µL reaction containing 2X SYBR Green PCR Master Mix, 10 nM of each primer, and 5 µL cDNA. […] Melting curve analysis was conducted post-amplification. Glyceraldehyde 3-phosphate dehydrogenase (GAPDH) mRNA served as the housekeeping gene, and fold differences were calculated using the 2^−∆∆CT method, incorporating standard deviation into the fold-difference calculation [30].

[2] = test system: serum corticosterone (CORT); assay: Serum corticosterone (CORT) ELISA in CMS mice; format: in vivo, male ICR mice; details: daily imipramine 20 mg/kg or GNR-E 50, 150 and 450 mg/kg, p < 0.001 vs vehicle-treated CMS group
Description: (§1) The CMS procedure, adapted from Willner, was applied to experimental mice over 48 days. Seventy-two mice were randomly assigned to six groups: a non-stress control group and four CMS-exposed groups for 6 weeks. Stressors included a tilted cage at 45° (12 h), restricted food access (five micro pellets, 1 h), empty bottle exposure (3 h), wet cage (200 mL water in 100 g sawdust bedding, 21 h), reversed light–dark cycle (36 h), intermittent sound (3 and 5 h), paired caging (2 h), and food/water deprivation (18 h), applied randomly weekly and repeated over 6 weeks (Figure 11). The non-stressed group was maintained under standard conditions.
Mice were randomly divided into six groups […]. The non-stress group received 0.5% sodium carboxymethylcellulose (SCMC; 1 mL/kg, p.o.), while the CMS group received 0.5% SCMC (1 mL/kg, p.o.). The CMS + imipramine (IMP) group was administered imipramine hydrochloride (20 mg/kg, p.o.), and the CMS + GNR-E groups received GNR-E at 50, 150, and 450 mg/kg (p.o.), respectively. All treatments were given daily for 3 weeks, starting on day 21, at 8:00 a.m., one hour before behavioral testing. […]
Corticosterone levels were measured using an enzyme-linked immunosorbent assay (ELISA) kit (ab108821, Abcam Ltd., Cambridge, Cambridgeshire, UK) following the manufacturer’s instructions. […]

norepinephrine (NE) = assay: Norepinephrine (NE) levels in frontal cortex and hippocampus of CMS mice; format: in vivo, male ICR mice; details: daily imipramine 20 mg/kg or GNR-E 450 mg/kg, vs vehicle-treated CMS group
Description: as §1
(§2) Mice were randomly divided into six groups (n = 15). The non-stress group received 0.5% sodium carboxymethylcellulose (SCMC; 1 mL/kg, p.o.), while the CMS group received 0.5% SCMC (1 mL/kg, p.o.). […]
Brain supernatant (0.2 mL) was combined with 0.1 mL sodium acetate buffer (pH 6.9), 0.05 mL HCl (0.4 M), and 0.1 mL iodine solution (0.1 M in ethanol) for oxidation. […] Excitation and emission spectra were recorded at 395 nm and 485 nm, respectively, using a calibrated spectrofluorometer. Norepinephrine concentrations were calculated from a standard curve (0, 50, 100, 140, 220, 280, 300 µg/mL) prepared in distilled water and butanol/HCl (1:2 ratio).

serotonin (5-HT) = assay: Serotonin (5-HT) levels in frontal cortex and hippocampus of CMS mice; format: in vivo, male ICR mice; details: daily imipramine 20 mg/kg or GNR-E 450 mg/kg, vs vehicle-treated CMS group
Description: as §1, §2
Serotonin levels in mouse brain extracts were quantified using a modified fluorometric method.A 0.2 mL brain extract sample was mixed with 0.25 mL O-phthaldialdehyde (Sigma-Aldrich, St. Louis, MO, USA) and heated to 100 °C for 10 min to form a fluorophore. Levels were measured spectrofluorometrically at 340 nm (excitation) and 470 nm (emission) after cooling to room temperature. Concentrations were determined against a calibration curve (0, 25, 50, 100, 200, 300, 400 µg/mL) using the equation Y = AX + B, expressed as µg/mL.

[3] = test system: depressive-like behaviors; assay: Chronic mild stress (CMS) mouse model of depression, behaviours overall; format: in vivo, male ICR mice; details: CMS mice, oral GNR-E 50, 150, 450 mg/kg/day, imipramine 20 mg/kg/day
Description: as §1, with “conditions. Mice were randomly divided into six groups […]. The non-stress group received 0.5% sodium carboxymethylcellulose (SCMC; 1 mL/kg, p.o.), while the CMS group received 0.5% SCMC (1 mL/kg, p.o.). […] All treatments were given daily for 3 weeks, starting on day 21, at 8:00 a.m., one hour before behavioral testing.” for “conditions.”

NET, α2A, and α2C = assay: qPCR of noradrenergic biomarker genes in frontal cortex and hippocampus of CMS mice; format: in vivo, male ICR mice
Description: as §1
Mice were randomly divided into six groups (n = 15). The non-stress group received 0.5% sodium carboxymethylcellulose (SCMC; 1 mL/kg, p.o.), while the CMS group received 0.5% SCMC (1 mL/kg, p.o.). The CMS + imipramine (IMP) group was administered imipramine hydrochloride (20 mg/kg, p.o.), and the CMS + GNR-E groups received GNR-E at 50, 150, and 450 mg/kg (p.o.), respectively. All treatments were given daily for 3 weeks, starting on day 21, at 8:00 a.m., one hour before behavioral testing.
Following behavioral tests, mice were anesthetized with […] (Nembutal®, Ceva Sante Animal, Libourne, France) at 60 mg/kg (i.p.) and decapitated. Blood and brain samples were collected immediately. Blood was centrifuged at 3000 rpm at 21 °C for 20 min to obtain serum for ELISA analysis. […]
(§3) Total RNA was extracted from frontal cortex (FC) and hippocampus (HP) using TRLzol® reagent (Thermo Fisher Scientific Inc., San Jose, CA, USA), with purity and quantity assessed via UV spectrophotometry. […] Double-stranded DNA was quantified using SYBR Green master mix (Thermo Fisher Scientific Inc., San Jose, CA, USA) in a 20 µL reaction containing 2X SYBR Green PCR Master Mix, 10 nM of each primer, and 5 µL cDNA. […] Glyceraldehyde 3-phosphate dehydrogenase (GAPDH) mRNA served as the housekeeping gene, and fold differences were calculated using the 2^−∆∆CT method, incorporating standard deviation into the fold-difference calculation.

[4] = test system: glucocorticoid receptor (GR) and serum/glucocorticoid-regulated kinase-1 (SGK-1); assay: qPCR of HPA-axis genes in frontal cortex and hippocampus of CMS mice; format: in vivo, male ICR mice; details: FC and HP, daily imipramine or GNR-E 50, 150, 450 mg/kg, vs vehicle-treated CMS group
Description: as §1
Mice were randomly divided into six groups (n = 15). […]
as §3

[5] = test system: CMS-induced anhedonia behavior; assay: Sucrose preference (consumption) test in CMS mice; format: in vivo, male ICR mice; details: imipramine 20 mg/kg p.o. daily, by week 4
Description: Five-week-old male ICR mice (15–20 g) were obtained from Nomura Siam International (Bangkok, Thailand) and acclimatized for seven days prior to experimentation. The study protocol adhered to the Guiding Principle for the Care and Use of Animals (NIH Publications #8-23, revised 2011) and was approved by the Animal Ethics Committee of Khon Kaen University (approval No. IACUC-KKU-121/64), complying with ARRIVE guideline 2.0. […] Behavioral experiments were conducted between 07:00 and 17:00 h. The CMS procedure, adapted from Willner, was applied to experimental mice over 48 days. Seventy-two mice were randomly assigned to six groups: a non-stress control group and four CMS-exposed groups for 6 weeks. […] The amount consumed each day was recorded and used to group the mice and establish the baseline sucrose consumption before initiating the chronic stress procedure. During the subsequent experimental period (week 1–6), sucrose consumption was measured weekly using the same deprivation and testing conditions under chronic stress. The weight of each mouse and the amount of sucrose solution consumed were recorded and calculated as the amount of sucrose intake g/kg body weight).

immobility = test system: immobility; set-up: method as in Sahu et al.; details: α-mangostin from G. mangostana, by elevating 5-HT; ref Sahu et al.; cited from earlier work
[6] = test system: antidepressant-like properties; details: through monoaminergic modulation; cited from earlier work
[7] = FC and HP, imipramine, GNR-E 150–450 mg/kg
[8] = imipramine, GNR-E 150–450 mg/kg

Compound: COc1c(O)cc2oc3cc(O)c(CC=C(C)C)c(O)c3c(=O)c2c1C/C=C(\C)CCC=C(C)C [cowanin]
- selective MAO-A inhibition (MAO-A): selectively inhibiting MAO-A
- MAO-A inhibition, rank among constituents (MAO-A; ref Our previous study): most potent toward MAO-A

Compound: COc1cc2oc3cc(O)c(CC=C(C)C)c(O)c3c(=O)c2c(CC=C(C)C)c1OC [cowaxanthone B]
- MAO-B inhibition (targeting) (MAO-B): targeting MAO-B

Compound: CN(C)CCCN1c2ccccc2CCc2ccccc21 [imipramine, imipramine hydrochloride]
- CMS-induced upregulation of serotonergic biomarker genes (SERT, 5-HT1A, 5-HT1B, 5-HT2A, 5-HT2C, 5-HT7) ([1]; FC and HP, daily imipramine 20 mg/kg or GNR-E 50, 150, 450 mg/kg, vs vehicle-treated CMS group): significantly reduced these elevations
- CMS-increased 5-HT1A and 5-HT1B mRNA expression ([1]; FC and HP, imipramine, GNR-E 450 mg/kg): reversed
- CMS-upregulated SERT mRNA expression [1, 7]: reversed
- CMS-elevated 5-HT2A, 5-HT2C, and 5-HT7 receptor expression [1, 8]: mitigated
- serum CORT levels [2]: significantly reduced these elevated CORT levels
- NE levels in frontal cortex and hippocampus (norepinephrine (NE)): significantly restored 5-HT and NE levels
- 5-HT levels in frontal cortex and hippocampus (serotonin (5-HT)): significantly restored 5-HT and NE levels
- depressive-like behaviors [3]: significantly improved depressive-like behaviors
- CMS-increased expression of noradrenergic genes (NET, α2A, α2C) (NET, α2A, and α2C; FC and HP, daily imipramine or GNR-E, highest dose greatest effect): significantly attenuated
- CMS-upregulated NET mRNA expression (NET, α2A, and α2C; [7]): reversed
- CMS-upregulated α2A and α2C receptor expression (NET, α2A, and α2C; [8]): reversed
- CMS-induced changes in SGK-1 (increased) and GR (decreased) mRNA levels [4]: significantly reversed these changes
- sucrose intake (2% sucrose solution) [5]: significant increase in sucrose intake

Compound: COc1c(O)cc2oc3cc(O)c(CC=C(C)C)c(O)c3c(=O)c2c1CC=C(C)C [α-mangostin]
- immobility (immobility): reducing immobility
- antidepressant-like properties [6]: antidepressant-like properties
- MAO-B inhibition (targeting) (MAO-B): targeting MAO-B
- MAO-B inhibition, relative strength (MAO-B; ref Our previous study): stronger MAO-B inhibition

Compound: cowagarcinone A
- selective MAO-A inhibition (MAO-A): selectively inhibiting MAO-A

Compound: cowaxanthone
- selective MAO-A inhibition (MAO-A): selectively inhibiting MAO-A

Compound: xanthochymusxanthone A
- selective MAO-A inhibition (MAO-A): selectively inhibiting MAO-A
